Results as given in the NIST ThermoML archive (doi:10.1021/je700260f).
Numbers after ± are expanded uncertainties.

Details: 303.15 K, Liquid, Vibrating tube method

FC(C(F)(F)F)C(F)(F)F [1,1,1,2,3,3,3-heptafluoropropane]
Details	mass density [kg/m3]
15975 kPa	1462 ± 1.6
16006 kPa	1462.4 ± 1.6
16038 kPa	1462.4 ± 1.6
16079 kPa	1462.6 ± 1.6
16111 kPa	1462.8 ± 1.6
16152 kPa	1462.9 ± 1.6
16184 kPa	1463 ± 1.6
16220 kPa	1463.2 ± 1.6
16252 kPa	1463.4 ± 1.6
16288 kPa	1463.6 ± 1.6
16325 kPa	1463.8 ± 1.6
16349 kPa	1463.9 ± 1.6
16386 kPa	1464 ± 1.6
16414 kPa	1464.1 ± 1.6
16443 kPa	1464.3 ± 1.6
16485 kPa	1464.4 ± 1.6
16513 kPa	1464.6 ± 1.6
16550 kPa	1464.7 ± 1.6
16577 kPa	1464.8 ± 1.6
16623 kPa	1465.1 ± 1.6
16650 kPa	1465.1 ± 1.6
16678 kPa	1465.2 ± 1.6
16706 kPa	1465.4 ± 1.6
16742 kPa	1465.5 ± 1.6
16775 kPa	1465.7 ± 1.6
16802 kPa	1465.8 ± 1.6
16832 kPa	1466 ± 1.6
16862 kPa	1466 ± 1.6
16887 kPa	1466.2 ± 1.6
16920 kPa	1466.4 ± 1.6
16953 kPa	1466.4 ± 1.6
16978 kPa	1466.6 ± 1.6
17021 kPa	1466.7 ± 1.6
17046 kPa	1466.9 ± 1.6
17084 kPa	1467 ± 1.6
17113 kPa	1467.2 ± 1.6
17142 kPa	1467.4 ± 1.6
17167 kPa	1467.5 ± 1.6
17196 kPa	1467.5 ± 1.6
17235 kPa	1467.8 ± 1.6
17260 kPa	1467.9 ± 1.6
17289 kPa	1468 ± 1.6
17322 kPa	1468.1 ± 1.6
17360 kPa	1468.3 ± 1.6
17393 kPa	1468.3 ± 1.6
17423 kPa	1468.6 ± 1.6
17451 kPa	1468.7 ± 1.6
17484 kPa	1468.8 ± 1.6
17509 kPa	1468.9 ± 1.6
17544 kPa	1469.1 ± 1.6
17577 kPa	1469.3 ± 1.6
17603 kPa	1469.3 ± 1.6
17633 kPa	1469.4 ± 1.6
17662 kPa	1469.6 ± 1.6
17718 kPa	1469.9 ± 1.6
17752 kPa	1470 ± 1.6
17778 kPa	1470 ± 1.6
17808 kPa	1470.1 ± 1.6
17837 kPa	1470.3 ± 1.6
17867 kPa	1470.6 ± 1.6
17892 kPa	1470.5 ± 1.6
17928 kPa	1470.7 ± 1.6
17958 kPa	1471 ± 1.6
17996 kPa	1471 ± 1.6
18026 kPa	1471.1 ± 1.6
18056 kPa	1471.2 ± 1.6
18091 kPa	1471.3 ± 1.6
18125 kPa	1471.6 ± 1.6
18151 kPa	1471.7 ± 1.6
18185 kPa	1471.7 ± 1.6
18211 kPa	1471.9 ± 1.6
18238 kPa	1472.2 ± 1.6
18277 kPa	1472.1 ± 1.6
18303 kPa	1472.4 ± 1.6
18333 kPa	1472.5 ± 1.6
18359 kPa	1472.6 ± 1.6
18389 kPa	1472.6 ± 1.6
18419 kPa	1472.9 ± 1.6
18449 kPa	1473 ± 1.6
18480 kPa	1472.9 ± 1.6
18511 kPa	1473.3 ± 1.6
18545 kPa	1473.3 ± 1.6
18580 kPa	1473.5 ± 1.6
18615 kPa	1473.7 ± 1.6
18646 kPa	1473.8 ± 1.6
18677 kPa	1473.8 ± 1.6
18707 kPa	1474.1 ± 1.6
18737 kPa	1474.2 ± 1.6
18777 kPa	1474.3 ± 1.6
18803 kPa	1474.4 ± 1.6
18835 kPa	1474.5 ± 1.6
18861 kPa	1474.7 ± 1.6
18888 kPa	1474.9 ± 1.6
18913 kPa	1475 ± 1.6
18954 kPa	1475.1 ± 1.6
18980 kPa	1475.2 ± 1.6
19017 kPa	1475.4 ± 1.6
19044 kPa	1475.5 ± 1.6
19075 kPa	1475.6 ± 1.6
19101 kPa	1475.6 ± 1.6
19144 kPa	1475.8 ± 1.6
19166 kPa	1476 ± 1.6
19200 kPa	1476.1 ± 1.6
19235 kPa	1476.3 ± 1.6
19270 kPa	1476.4 ± 1.6
19296 kPa	1476.6 ± 1.6
19327 kPa	1476.6 ± 1.6
19353 kPa	1476.7 ± 1.6
19385 kPa	1476.8 ± 1.6
19420 kPa	1477 ± 1.6
19455 kPa	1477.2 ± 1.6
19490 kPa	1477.3 ± 1.6
19517 kPa	1477.4 ± 1.6
19553 kPa	1477.5 ± 1.6
19592 kPa	1477.7 ± 1.6
19624 kPa	1477.9 ± 1.6
19655 kPa	1478.1 ± 1.6
19691 kPa	1478.1 ± 1.6
19717 kPa	1478.1 ± 1.6
19758 kPa	1478.3 ± 1.6
19785 kPa	1478.6 ± 1.6
19828 kPa	1478.6 ± 1.6
19860 kPa	1478.8 ± 1.6
19891 kPa	1478.9 ± 1.6
19918 kPa	1479 ± 1.6
19949 kPa	1479.2 ± 1.6
19981 kPa	1479.4 ± 1.6
20016 kPa	1479.4 ± 1.6
20044 kPa	1479.6 ± 1.6
20076 kPa	1479.9 ± 1.6
20107 kPa	1479.9 ± 1.6
20152 kPa	1480 ± 1.6
20179 kPa	1480.1 ± 1.6
20216 kPa	1480.2 ± 1.6
20244 kPa	1480.4 ± 1.6
20285 kPa	1480.6 ± 1.6
20325 kPa	1480.6 ± 1.6
20357 kPa	1480.8 ± 1.6
20394 kPa	1481 ± 1.6
20436 kPa	1481.2 ± 1.6
20463 kPa	1481.3 ± 1.6
20491 kPa	1481.3 ± 1.6
20539 kPa	1481.6 ± 1.6
20570 kPa	1481.7 ± 1.6
20597 kPa	1481.8 ± 1.6
20637 kPa	1481.9 ± 1.6
20668 kPa	1482 ± 1.6
20701 kPa	1482.2 ± 1.6
20728 kPa	1482.4 ± 1.6
20769 kPa	1482.6 ± 1.6
20802 kPa	1482.7 ± 1.6
20880 kPa	1482.9 ± 1.6
21049 kPa	1483.6 ± 1.6
21082 kPa	1483.8 ± 1.6
21120 kPa	1483.8 ± 1.6
21152 kPa	1484.1 ± 1.6
21193 kPa	1484.2 ± 1.6
21217 kPa	1484.4 ± 1.6
21250 kPa	1484.5 ± 1.6
21278 kPa	1484.6 ± 1.6
21322 kPa	1484.7 ± 1.6
21360 kPa	1484.9 ± 1.6
21388 kPa	1485 ± 1.6
21421 kPa	1485.1 ± 1.6
21458 kPa	1485.3 ± 1.6
21490 kPa	1485.4 ± 1.6
21523 kPa	1485.5 ± 1.6
21556 kPa	1485.5 ± 1.6
21593 kPa	1485.8 ± 1.6
21626 kPa	1486 ± 1.6
22323 kPa	1488.6 ± 1.6
22447 kPa	1489.1 ± 1.6
22485 kPa	1489.3 ± 1.6
22514 kPa	1489.4 ± 1.6
22548 kPa	1489.4 ± 1.6
22580 kPa	1489.5 ± 1.6
22613 kPa	1489.9 ± 1.6
22643 kPa	1489.7 ± 1.6
22673 kPa	1490 ± 1.6
22707 kPa	1490.1 ± 1.6
22733 kPa	1490.2 ± 1.6
22771 kPa	1490.3 ± 1.6
22801 kPa	1490.4 ± 1.6
22828 kPa	1490.5 ± 1.6
22863 kPa	1490.7 ± 1.6
22899 kPa	1490.8 ± 1.6
22934 kPa	1490.9 ± 1.6
22959 kPa	1491.1 ± 1.6
22997 kPa	1491.3 ± 1.6
23032 kPa	1491.4 ± 1.6
23062 kPa	1491.6 ± 1.6
23102 kPa	1491.5 ± 1.6
23128 kPa	1491.8 ± 1.6
23159 kPa	1491.7 ± 1.6
23186 kPa	1491.9 ± 1.6
23217 kPa	1492 ± 1.6
23249 kPa	1492.1 ± 1.6
23281 kPa	1492.3 ± 1.6
23307 kPa	1492.3 ± 1.6
23342 kPa	1492.6 ± 1.6
23364 kPa	1492.6 ± 1.6
23395 kPa	1492.8 ± 1.6
23431 kPa	1492.8 ± 1.6
23462 kPa	1492.9 ± 1.6
23497 kPa	1493 ± 1.6
